In ChEMBL document CHEMBL4613209, “Quinolone hybrids and their anti-cancer activities: An overview” (Eur J Med Chem, 2019):

Test system: HL-60
Experiment: Antiproliferative activity against human HL60 cells after 24 to 72 hrs by MTT assay
Format: functional, cell-based

Row | Structure (SMILES) | IC50 [µM]
1 | COc1cc(/C=N/Nc2nnc(-c3cn4c5c(c(N6CCN(C)CC6)c(F)cc5c3=O)OCC4C)[nH]2)cc(OC)c1OC (stereo not given) | 1.4 to 52.3
2 | CC1COc2c(N3CCN(C)CC3)c(F)cc3c(=O)c(-c4nnc(N/N=C/c5ccccc5)[nH]4)cn1c23 (stereo not given) | 1.4 to 52.3
3 | CCn1cc(C(=O)N/N=C/c2ccccc2)c(=O)c2cc(F)c(N3CCNCC3)cc21 | 1.4 to 52.3
4 | COc1ccc(/C=N/NC(=O)CSc2nnc(-c3cn4c5c(c(N6CCN(C)CC6)c(F)cc5c3=O)OCC4C)[nH]2)cc1 (stereo not given) | 1.4 to 52.3
5 | CCn1cc(C(=O)N/N=C/c2cc(OC)c(OC)c(OC)c2)c(=O)c2cc(F)c(N3CCNCC3)cc21 | 1.4 to 52.3
6 | CC1COc2c(N3CCN(C)CC3)c(F)cc3c(=O)c(-c4nnc(N/N=C/c5ccc(F)cc5)[nH]4)cn1c23 (stereo not given) | 1.4 to 52.3
7 | CCn1cc(C(=O)N/N=C/c2ccc3c(c2)OCO3)c(=O)c2cc(F)c(N3CCNCC3)cc21 | 1.4 to 52.3
8 | CC1COc2c(N3CCN(C)CC3)c(F)cc3c(=O)c(-c4nnc(N/N=C/c5ccc([N+](=O)[O-])c6c5OCO6)[nH]4)cn1c23 (stereo not given) | 1.4 to 52.3
9 | CC1COc2c(N3CCN(C)CC3)c(F)cc3c(=O)c(-c4nnc(N/N=C/c5ccc(Cl)cc5)[nH]4)cn1c23 (stereo not given) | 1.4 to 52.3
10 | CCn1cc(C(=O)N/N=C/c2ccc(OC)cc2)c(=O)c2cc(F)c(N3CCNCC3)cc21 | 1.4 to 52.3

Test system: L1210
Experiment: Antiproliferative activity against mouse L1210 cells after 24 to 72 hrs by MTT assay
Format: functional, cell-based

Row | Structure (SMILES) | IC50 [µM]
11 | COc1cc(/C=N/Nc2nnc(-c3cn4c5c(c(N6CCN(C)CC6)c(F)cc5c3=O)OCC4C)[nH]2)cc(OC)c1OC (stereo not given) | 1.4 to 52.3
12 | CC1COc2c(N3CCN(C)CC3)c(F)cc3c(=O)c(-c4nnc(N/N=C/c5ccccc5)[nH]4)cn1c23 (stereo not given) | 1.4 to 52.3
13 | CCn1cc(C(=O)N/N=C/c2ccccc2)c(=O)c2cc(F)c(N3CCNCC3)cc21 | 1.4 to 52.3
14 | COc1ccc(/C=N/NC(=O)CSc2nnc(-c3cn4c5c(c(N6CCN(C)CC6)c(F)cc5c3=O)OCC4C)[nH]2)cc1 (stereo not given) | 1.4 to 52.3
15 | CCn1cc(C(=O)N/N=C/c2cc(OC)c(OC)c(OC)c2)c(=O)c2cc(F)c(N3CCNCC3)cc21 | 1.4 to 52.3
16 | CC1COc2c(N3CCN(C)CC3)c(F)cc3c(=O)c(-c4nnc(N/N=C/c5ccc(F)cc5)[nH]4)cn1c23 (stereo not given) | 1.4 to 52.3
17 | CCn1cc(C(=O)N/N=C/c2ccc3c(c2)OCO3)c(=O)c2cc(F)c(N3CCNCC3)cc21 | 1.4 to 52.3
18 | CC1COc2c(N3CCN(C)CC3)c(F)cc3c(=O)c(-c4nnc(N/N=C/c5ccc([N+](=O)[O-])c6c5OCO6)[nH]4)cn1c23 (stereo not given) | 1.4 to 52.3
19 | CC1COc2c(N3CCN(C)CC3)c(F)cc3c(=O)c(-c4nnc(N/N=C/c5ccc(Cl)cc5)[nH]4)cn1c23 (stereo not given) | 1.4 to 52.3
20 | CCn1cc(C(=O)N/N=C/c2ccc(OC)cc2)c(=O)c2cc(F)c(N3CCNCC3)cc21 | 1.4 to 52.3

Test system: Hep 3B2
Experiment: Antiproliferative activity against human Hep3B cells after 24 to 72 hrs by MTT assay
Format: functional, cell-based

Row | Structure (SMILES) | IC50 [µM]
21 | COc1cc(/C=N/Nc2nnc(-c3cn4c5c(c(N6CCN(C)CC6)c(F)cc5c3=O)OCC4C)[nH]2)cc(OC)c1OC (stereo not given) | 1.4 to 52.3
22 | CC1COc2c(N3CCN(C)CC3)c(F)cc3c(=O)c(-c4nnc(N/N=C/c5ccccc5)[nH]4)cn1c23 (stereo not given) | 1.4 to 52.3
23 | CCn1cc(C(=O)N/N=C/c2ccccc2)c(=O)c2cc(F)c(N3CCNCC3)cc21 | 1.4 to 52.3
24 | COc1ccc(/C=N/NC(=O)CSc2nnc(-c3cn4c5c(c(N6CCN(C)CC6)c(F)cc5c3=O)OCC4C)[nH]2)cc1 (stereo not given) | 1.4 to 52.3
25 | CCn1cc(C(=O)N/N=C/c2cc(OC)c(OC)c(OC)c2)c(=O)c2cc(F)c(N3CCNCC3)cc21 | 1.4 to 52.3
26 | CC1COc2c(N3CCN(C)CC3)c(F)cc3c(=O)c(-c4nnc(N/N=C/c5ccc(F)cc5)[nH]4)cn1c23 (stereo not given) | 1.4 to 52.3
27 | CCn1cc(C(=O)N/N=C/c2ccc3c(c2)OCO3)c(=O)c2cc(F)c(N3CCNCC3)cc21 | 1.4 to 52.3
28 | CC1COc2c(N3CCN(C)CC3)c(F)cc3c(=O)c(-c4nnc(N/N=C/c5ccc([N+](=O)[O-])c6c5OCO6)[nH]4)cn1c23 (stereo not given) | 1.4 to 52.3
29 | CC1COc2c(N3CCN(C)CC3)c(F)cc3c(=O)c(-c4nnc(N/N=C/c5ccc(Cl)cc5)[nH]4)cn1c23 (stereo not given) | 1.4 to 52.3
30 | CCn1cc(C(=O)N/N=C/c2ccc(OC)cc2)c(=O)c2cc(F)c(N3CCNCC3)cc21 | 1.4 to 52.3

Test system: SMMC-7721
Experiment: Antiproliferative activity against human SMMC7721 cells after 24 to 72 hrs by MTT assay
Format: functional, cell-based

Row | Structure (SMILES) | IC50 [µM]
31 | COc1cc(/C=N/Nc2nnc(-c3cn4c5c(c(N6CCN(C)CC6)c(F)cc5c3=O)OCC4C)[nH]2)cc(OC)c1OC (stereo not given) | 1.4 to 52.3
32 | CC1COc2c(N3CCN(C)CC3)c(F)cc3c(=O)c(-c4nnc(N/N=C/c5ccccc5)[nH]4)cn1c23 (stereo not given) | 1.4 to 52.3
33 | CCn1cc(C(=O)N/N=C/c2ccccc2)c(=O)c2cc(F)c(N3CCNCC3)cc21 | 1.4 to 52.3
34 | COc1ccc(/C=N/NC(=O)CSc2nnc(-c3cn4c5c(c(N6CCN(C)CC6)c(F)cc5c3=O)OCC4C)[nH]2)cc1 (stereo not given) | 1.4 to 52.3
35 | CCn1cc(C(=O)N/N=C/c2cc(OC)c(OC)c(OC)c2)c(=O)c2cc(F)c(N3CCNCC3)cc21 | 1.4 to 52.3
36 | CC1COc2c(N3CCN(C)CC3)c(F)cc3c(=O)c(-c4nnc(N/N=C/c5ccc(F)cc5)[nH]4)cn1c23 (stereo not given) | 1.4 to 52.3
37 | CCn1cc(C(=O)N/N=C/c2ccc3c(c2)OCO3)c(=O)c2cc(F)c(N3CCNCC3)cc21 | 1.4 to 52.3
38 | CC1COc2c(N3CCN(C)CC3)c(F)cc3c(=O)c(-c4nnc(N/N=C/c5ccc([N+](=O)[O-])c6c5OCO6)[nH]4)cn1c23 (stereo not given) | 1.4 to 52.3
39 | CC1COc2c(N3CCN(C)CC3)c(F)cc3c(=O)c(-c4nnc(N/N=C/c5ccc(Cl)cc5)[nH]4)cn1c23 (stereo not given) | 1.4 to 52.3
40 | CCn1cc(C(=O)N/N=C/c2ccc(OC)cc2)c(=O)c2cc(F)c(N3CCNCC3)cc21 | 1.4 to 52.3
